Data set [1] relates to CYP3A4, CYP1A2, CYP2B6, and CYP2C9. Description: Induction of gene expression of CYP enzymes by inducing agents. The following applies: confirmed by the inventors. It is filed as cell-based, human.
Another data set has as its system CYP enzyme group. Nature of the data set: Raman observation of HepaRG hepatocytes, signal of oxidized CYP enzyme group (1370, 1636 cm^-1). Format: cell-based, human. An excerpt: (§1) A Raman image of the cell group cultured using the above-mentioned method (1) or (2) was constructed by quantitatively measuring the Raman signal using Raman spectroscopy. Here, the “observation” in the present specification includes both detecting a Raman scattering signal of a cell group and acquiring and observing a Raman image of a cell group. […] Details are explained in each Example.
The culture medium of the cultured cell group was removed, and the cell group was washed twice with PBS. An observation solution (Live Cell Imaging Solution (A14291DJ, Thermo Fisher Scientific)) was added to the washed cell group. The thus-treated cell group was subjected to Raman observation using the Raman microscope (Non Patent Literature 3) described using FIG. 1 (FIG. 6, FIG. 9 to 11, FIG. 13 to FIG. 21, FIG. 23 to FIG. 26).
A 40× water immersion objective lens (CFI Apochromat Lambda S 40XC WI) equipped in a Raman microscope was used to excite the Raman scattered light of the cell group and to detect the Raman scattering signal. The excitation light of the Raman scattered light of the cell group was irradiated by condensing a laser beam with a wavelength of 532 nm into a straight line with a predetermined length (hereinafter referred to as a line) using the water immersion objective lens.
(§2) The flow of detection of Raman scattered light of a cell group that was generated by excitation with excitation light is explained. […] The Raman scattering signal imaged on the slit is then separated by diffraction grating inside the spectroscope and detected by a cooling-type CCD image sensor (PIXIS 400B, Princeton Instruments) used as a photodetector. Raman scattering signals scattered from everywhere on the condensed line can be measured simultaneously and independently by different pixels on the CCD. […] Respective Raman signals were simultaneously detected in an about 133.3 μm region on the direction of the condensed line.

In data set [2] the test system is reduced heme b, mainly reduced cytochrome b5. Nature of the data set: Raman observation of HepaRG hepatocytes, reduced heme b signal (675 cm^-1). It is filed as cell-based, human. To be noted: HepaRG induced with 4 μM Rifampicin, inhibitor 10 μM for 5 min (FIG. 24).
Excerpt: as §1
The culture medium of the cultured cell group was removed, and the cell group was washed twice with PBS. An observation solution (Live Cell Imaging Solution (A14291DJ, Thermo Fisher Scientific)) was added to the washed cell group. […]
as §2

In another data set the target is T1, CYP3A4 (Homo sapiens, UniProt P08684).
T1 construct: endogenous in cells; host or cells: HepaRG cells (human liver tumor-derived; BIOPREDIC International)
Description: CYP3A4 activity in cell group by luminescence method (P450-Glo, Luciferin-IPA). Format: cell-based. To be noted: HepaRG pre-induced with 2% DMSO, 2 ng/ml, 48 hr, vs control (FIG. 18). The protocol:
In order to confirm the enzyme activity of CYP3A4, which is particularly expressed in liver cells among the CYP enzymes in the cell group subjected to Raman observation, a test using a luminescence method (hereinafter a luminescence test) was performed in parallel with the Raman observation. The cell is group used in the luminescence test was a cell group separated from the cultured cells used in the below-mentioned Raman observation in (5). That is, the cell group cultured under the same conditions and at the same time as the cultured cells used in Raman observation was used. CYP luminescence test was performed using a commercially available luminescence assay kit (P450-Glo-CYP3A4-Assay-and-Screening-System) according to the provided protocol.
When the Luciferin-IPA substrate is converted to luciferin by CYP3A4, it becomes a substrate for luciferase, producing luminescence proportional to the activity of CYP3A4. […] Luciferase (50 μl) was added dropwise to the dispensed substrate-containing medium, and luminescence was caused using the luciferin-luciferase reaction. Luminescence was detected using a micro-plate reader (Synergy HTX, BioTek). The CYP3A4 activity detected by the present luminescence method is shown in FIG. 7, FIG. 14, FIG. 16, FIG. 18, FIG. 20, and FIG. 22.

Four compounds from US20240229101A1, “METHOD FOR DETECTING INTRACELLULAR ACTIVITY OF CYP ENZYMES” (NATIONAL INSTITUTE OF ADVANCED INDUSTRIAL SCIENCE AND …, priority 2021, published 2024) can be followed below.

T1 sequence (P08684 whole entry): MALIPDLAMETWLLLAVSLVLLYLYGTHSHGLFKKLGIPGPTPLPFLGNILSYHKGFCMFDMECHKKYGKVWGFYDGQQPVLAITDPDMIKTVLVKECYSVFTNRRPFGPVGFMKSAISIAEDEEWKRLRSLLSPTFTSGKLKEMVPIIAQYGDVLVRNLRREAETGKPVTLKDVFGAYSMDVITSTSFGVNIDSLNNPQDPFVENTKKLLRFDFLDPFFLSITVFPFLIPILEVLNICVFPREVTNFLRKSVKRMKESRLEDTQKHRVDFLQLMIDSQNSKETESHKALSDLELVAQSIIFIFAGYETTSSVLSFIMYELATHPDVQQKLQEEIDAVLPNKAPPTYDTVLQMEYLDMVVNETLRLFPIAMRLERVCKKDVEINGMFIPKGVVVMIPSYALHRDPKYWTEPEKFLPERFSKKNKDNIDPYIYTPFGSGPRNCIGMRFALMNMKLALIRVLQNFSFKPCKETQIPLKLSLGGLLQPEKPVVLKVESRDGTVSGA

Take `NC(=O)N1c2ccccc2C=Cc2ccccc21` [Carbamazepine]: the “gene expression of at least one of CYP3A4, CYP1A2, CYP2B6, CYP2C9” value in data set [1] is “induce gene expression”.
As for `CC[C@]1(C)C[C@@H](OC(=O)CSc2nnc(N)[nH]2)[C@]2(C)[C@H](C)CC[C@]3(CCC(=O)[C@H]32)[C@@H](C)[C@@H]1O` [Azamulin], in the data set on CYP enzyme group (HepaRG induced with 4 μM Rifampicin, inhibitor 10 μM for 5 min (FIG. 23)), the “Raman signal at a wavenumber of 1636 cm^-1 after inhibition” value is listed as “reduces”. The “median value of per-cell Raman signal at 1636 cm^-1 after inhibition” value in the data set with CYP enzyme group (HepaRG induced with 4 μM Rifampicin, inhibitor 10 μM for 5 min, vs not administered, statistically significant (FIG. 23)) was “decreased”. Also, in data set [2], the “Raman signal with a wavenumber of 675 cm^-1 after inhibition” value is “did not increase”.
For the compound Interleukin-6 [IL-6], the “CYP activity detected using Raman signals (1636 cm^-1) after suppression” value with CYP enzyme group (HepaRG pre-induced with 2% DMSO, 2 ng/ml, 48 hr, vs control (FIGS. 18, 19)) was “downregulation”. Moreover, in the data set with CYP3A4, the “activity of CYP3A4 (luminescence test) after suppression” value is listed as “decreases”.
`O=C1NC(=O)C(c2ccccc2)(c2ccccc2)N1` [Phenytoin]: the “gene expression of at least one of CYP3A4, CYP1A2, CYP2B6, CYP2C9” value in data set [1] is given as “induce gene expression”.
